In patent US11421025B2, “Treatment of IL-17A diseases” (OSAKA UNIVERSITY, priority 2013, dated 2022):
Ends that are not written are not given here.

How the values were obtained:
Format in all cases: in vivo
[1] = tested on: human IL-17A epitope (BSA conjugate); assay: Antibody titer by ELISA after human IL-17A epitope vaccines in BALB/c mouse; details: 6 weeks from the first administration, 3 times at 2-week intervals (FIG. 18, 20, 21)
Method: Production of plate: Mouse IL-17A1 epitope+BSA conjugate and mouse IL-17A2 epitope+BSA conjugate were dispensed to a 96 well plate at a concentration of 10 μg/ml, and stood at 4° C. overnight. Recombinant mouse IL-17A was dispensed to a 96 well plate at a concentration of 0.25 μg/ml and stood at 4° C. overnight.
The aforementioned plate was washed once with PBS (200 μl), and blocked with 5% skim milk in PBS for 2 hr. The primary antibody (mouse antiserum) was serially diluted with 5% skim milk in PBS, applied by 50 μl to a 96 well plate, and incubated at 4° C. overnight.
The aforementioned plate was washed 7 times with PBS-T (0.05% Tween) (200 μl), the secondary antibody (anti-mouse IgG Ab-HRP-labeled) was diluted 1/1000 (5% skim milk), added by 50 μl, and incubated at ambient temperature for 3 hr. The plate was washed 3 times with PBS-T (0.05% Tween) (200 μl), TMB solution (50 μl) was added, shaded and incubated at ambient temperature for 30 min. 0.5N H2SO4 (50 μl) was added to discontinue the reaction and absorbance was measured at 450 nm.
(§1) A vaccine containing a peptide consisting of the following human IL-17A1 epitope (KLH conjugated) corresponding to mouse IL-17A1 epitope (RPSDYLNR (SEQ ID NO: 5)) was produced, and intradermally administered to BALB/c mouse 3 times at 2-week intervals. The serum antibody titer was measured at 6 weeks from the first administration according to the method described in Example 1.
In addition, a vaccine containing a peptide consisting of two kinds of epitopes (human IL-17A2 epitope, human IL-17A3 epitope) of the following human IL-17A (KLH conjugated) was produced, and intradermally administered to BALB/c mouse 3 times at 2-week intervals. The serum antibody titer was measured at 6 weeks from the first administration according to the method described in Example 1.
Furthermore, a vaccine containing a peptide consisting of the following human IL-17A4, which is a partial sequence of human IL-17A1 epitope (KLH conjugated), was produced. […]

[2] = target: T1, mouse IL-17A1 epitope (BSA conjugate) (Mus musculus, UniProt Q62386); assay: ELISA intersection reactivity of antiserum with mouse IL-17A1 epitope; details: serum of BALB/c mouse immunized with human epitope vaccine (FIG. 19A)
T1 construct: BSA-IL-17A1 (RPSDYLNR) conjugate (No5 BSA conjugate)
Method: The primary antibody (mouse antiserum) was diluted 10-fold, and then serially diluted by 5-fold and used. […]
as §1

[3] = tested on: DBA/1 mouse, arthritis caused by Type II collagen; assay: Type II collagen arthritis model mouse, human IL-17A peptide vaccines; details: Experiment 8, KLH conjugated peptide vaccines (FIG. 22B)
Method: A vaccine containing a peptide consisting of human IL-17A1 epitope, human IL-17A2 epitope or human IL-17A4 epitope was administered to femoral muscle of each of the following 6-week-old male mice (KLH conjugated) 3 times at 2-week intervals (120 μg/60 μl×1 site/administration). Type II collagen and CFA (complete Freund's adjuvant) were administered at 28 days from the first vaccine administration, and Type II collagen and IFA (incomplete Freund's adjuvant) were administered at 42 days from the first vaccine administration, to induce arthritis. Thereafter, the level of arthritis was observed 3 times per week and scored.
H17 (human IL-17A1 epitope) group: 3 mice
AF4 (human IL-17A4 epitope) group: 3 mice
AF5 (human IL-17A2 epitope) group: 3 mice

Substance	serum antibody titer [1]	intersection reactivity of serum with mouse IL-17A1 epitope [2]	clinical score of arthritis [3]
human IL-17A1 epitope: vaccine containing a peptide consisting of human IL-17A1 epitope RSSDYYNR (SEQ ID NO: 1), KLH conjugated (also: KLH conjugated; listed as Homo sapiens)	increased	showed intersection reactivity	suppressive effect on the onset and progression of arthritis
human IL-17A2 epitope: vaccine containing a peptide consisting of human IL-17A2 epitope ADGNVDYHMNSVPIQQE (SEQ ID NO: 8), KLH conjugated (also: KLH conjugated; listed as Homo sapiens)	increased	–	suppressive effect on the onset and progression of arthritis
human IL-17A4 epitope: vaccine containing a peptide consisting of human IL-17A4 epitope SDYYN (SEQ ID NO: 11), KLH conjugated (also: KLH conjugated; listed as Homo sapiens)	increased	–	suppressive effect on the onset and progression of arthritis
